Patent publication US10954197B2, “Cathepsin-D and angiogenesis inhibitors and compositions thereof for treating breast cancer” (YOGEE'S BIOINNOVATIONS PRIVATE LIMITED, priority 2017, dated 2021)

Row | SMILES | melting point
1 | O=C(CSc1n[nH]c(NC(=O)NCc2ccccc2)n1)Nc1ccc([N+](=O)[O-])cc1 [Example 19, 2-((5-(3-benzylureido)-1H-1,2,4-triazol-3-yl)thio)-N-(4-nitrophenyl)acetamide] | 40 to 42 °C
2 | COc1cc(NC(=O)CSc2n[nH]c(CNc3ccccc3)n2)cc(OC)c1 [Example 14, N-(3,5-dimethoxyphenyl)-2-((5-((phenylamino)methyl)-1H-1,2,4-triazol-3-yl)thio)acetamide] | 40 to 42 °C
3 | O=C(CSc1n[nH]c(CNc2ccccc2)n1)Nc1cccc(F)c1 [Example 10, N-(3-fluorophenyl)-2-((5-((phenylamino)methyl)-1H-1,2,4-triazol-3-yl)thio)acetamide] | 40 to 42 °C
4 | Cc1cccc(NCc2nc(SCC(=O)Nc3cc(C(F)(F)F)ccc3Cl)n[nH]2)c1 [Example 8, N-(2-chloro-5-(trifluoromethyl)phenyl)-2-((5-((m-tolylamino)methyl)-1H-1,2,4-triazol-3-yl)thio)acetamide] | 40 to 42 °C
5 | COc1cc(NC(=O)CSc2n[nH]c(CNc3cccc(C)c3)n2)cc(OC)c1 [Example 7, N-(3,5-dimethoxyphenyl)-2-((5-((m-tolylamino)methyl)-1H-1,2,4-triazol-3-yl)thio)acetamide] | 40 to 42 °C
6 | O=C(CSc1n[nH]c(CNc2ccccc2)n1)Nc1ccc(Cl)c(Cl)c1 [Example 13, N-(3,4-dichlorophenyl)-2-((5-((phenylamino)methyl)-1H-1,2,4-triazol-3-yl)thio)acetamide] | 40 to 42 °C
7 | COc1ccc(NC(=O)CSc2n[nH]c(CNc3cccc(C)c3)n2)cc1 [Example 5, N-(4-methoxyphenyl)-2-((5-((m-tolylamino)methyl)-1H-1,2,4-triazol-3-yl)thio)acetamide] | 40 to 42 °C
8 | COc1ccc(Cl)cc1NC(=O)CSc1n[nH]c(CNc2cccc(C)c2)n1 [Example 1, N-(5-chloro-2-methoxyphenyl)-2-((5-((m-tolylamino)methyl)-1H-1,2,4-triazol-3-yl)thio)acetamide] | 40 to 42 °C
9 | Cc1cccc(NCc2nc(SCC(=O)Nc3ccc(Cl)c(Cl)c3)n[nH]2)c1 [Example 6, N-(3,4-dichlorophenyl)-2-((5-((m-tolylamino)methyl)-1H-1,2,4-triazol-3-yl)thio)acetamide] | 40 to 42 °C
10 | Cc1cc([N+](=O)[O-])ccc1NC(=O)CSc1n[nH]c(NC(=O)NCc2ccccc2)n1 [Example 21, 2-((5-(3-benzylureido)-1H-1,2,4-triazol-3-yl)thio)-N-(2-methyl-4-nitrophenyl)acetamide] | 40 to 42 °C
11 | O=C(CSc1n[nH]c(CNc2ccccc2)n1)Nc1ccccc1 [Example 9, N-phenyl-2-((5-((phenylamino)methyl)-1H-1,2,4-triazol-3-yl)thio)acetamide] | 40 to 42 °C

Next, values leading:

Row | melting point | SMILES
12 | 40 to 42 °C | COc1ccc(NC(=O)CSc2n[nH]c(CNc3ccccc3)n2)cc1 [Example 12, N-(4-methoxyphenyl)-2-((5-((phenylamino)methyl)-1H-1,2,4-triazol-3-yl)thio)acetamide]
13 | 40 to 42 °C | CC(=O)c1cccc(NC(=O)CSc2n[nH]c(NC(=S)NCc3ccccc3)n2)c1 [Example 18, N-(3-acetylphenyl)-2-((5-(3-benzylthioureido)-1H-1,2,4-triazol-3-yl)thio)acetamide]
14 | 40 to 42 °C | Cc1cccc(NCc2nc(SCC(=O)Nc3cccc(F)c3)n[nH]2)c1 [Example 3, N-(3-fluorophenyl)-2-((5-((m-tolylamino)methyl)-1H-1,2,4-triazol-3-yl)thio)acetamide]
15 | 40 to 42 °C | O=C(CSc1n[nH]c(CNc2ccccc2)n1)Nc1cccc(Br)c1 [Example 11, N-(3-bromophenyl)-2-((5-((phenylamino)methyl)-1H-1,2,4-triazol-3-yl)thio)acetamide]
16 | 40 to 42 °C | CC(=O)c1cccc(NC(=O)CSc2n[nH]c(NC(=O)NCc3ccccc3)n2)c1 [Example 20, N-(3-acetylphenyl)-2-((5-(3-benzylureido)-1H-1,2,4-triazol-3-yl)thio)acetamide]
17 | 40 to 42 °C | Cc1cccc(NCc2nc(SCC(=O)Nc3ccccc3)n[nH]2)c1 [Example 2, N-Phenyl-2-((5-((m-tolylamino)methyl)-1H-1,2,4-triazol-3-yl)thio)acetamide]
